ChEMBL document CHEMBL1131698, “Platelet glycoprotein IIb/IIIa receptor antagonists derived from isoxazolidines” (Bioorg Med Chem Lett, 1999)
pIC50: −log10 of the molar value.

Species on record: Homo sapiens
Test: Compound was tested for its in vitro activity in the inhibition of platelet aggregation using human platelet rich plasma
Assay type: functional

pIC50 | SMILES
7.24 | Cc1ccccc1S(=O)(=O)N[C@@H](CNC(=O)C[C@@H]1C[C@H](c2ccc(C(=N)N)cc2)N(C)O1)C(=O)O
6.85 | Cc1cccc(S(=O)(=O)N[C@@H](CNC(=O)C[C@@H]2C[C@H](c3ccc(C(=N)N)cc3)N(C(C)C)O2)C(=O)O)c1
7.55 | Cc1cccc(S(=O)(=O)N[C@@H](CNC(=O)C[C@@H]2C[C@H](c3ccc(C(=N)N)cc3)N(C)O2)C(=O)O)c1
7.08 | Cc1noc(C)c1S(=O)(=O)N[C@@H](CNC(=O)C[C@@H]1C[C@H](c2ccc(C(=N)N)cc2)N(C)O1)C(=O)O
6.72 | Cc1cccc(S(=O)(=O)N[C@@H](CNC(=O)C[C@@H]2C[C@H](c3ccc(C(=N)N)cc3)N(Cc3ccccc3)O2)C(=O)O)c1
6.79 | CCCCOC(=O)N[C@@H](CNC(=O)C[C@@H]1C[C@H](c2ccc(C(=N)N)cc2)N(C)O1)C(=O)O
5.82 | Cc1cccc(S(=O)(=O)N[C@@H](CNC(=O)C[C@H]2C[C@H](c3ccc(C(=N)N)cc3)N(C)O2)C(=O)O)c1
6.28 | Cc1cccc(S(=O)(=O)N[C@@H](CNC(=O)C[C@@H]2C[C@H](c3ccc(C(=N)N)cc3)N(c3ccccc3)O2)C(=O)O)c1
